{"source": "patent US20250313527A1", "about": "“AMPHIPHILIC LIPID INCLUDING TERTIARY AMINE N-OXIDE GROUP, LIPOSOMAL DRUG-DELIVERY SYSTEM, AND USE OF AMPHIPHILIC LIPID” (HANGZHOU TITO BIOTECHNOLOGY PARTNERSHIP ENTERPRISE (LIMITED …, priority 2022, published 2025)", "test": "Plasma clearance and tissue distribution (in vivo imaging of DiR fluorescence)", "conditions": "HepG2 tumor-bearing BALB/c nude mice, intravenous injection, FIG. 12 to FIG. 13", "experimental": "Female BALB/c nude mice bearing HepG2 subcutaneous tumors (about 70 mm^3) were randomly divided into three groups with 3 mice in each group, and intravenously injected with DiR, ^DiRODML, or ^DiRODEL. 24 h later, blood was collected from the orbital veins of mice. 500 μL of a blood sample was taken and tested by a small animal in vivo imaging instrument for a fluorescence intensity. Mice were dissected, and tissues such as a heart, a liver, a spleen, a lung, a kidney, an intestine, and a tumor were collected. Each tissue was detected by a small animal in vivo imaging instrument for a fluorescence intensity."}
{"smiles": "CCCCCCCCCCCCCCCCCCN1/C(=C/C=C/C=C/C=C/C2=[N+](CCCCCCCCCCCCCCCCCC)c3ccccc3C2(C)C)C(C)(C)c2ccccc21.[I-]", "note": "[DiR]", "values": [{"measurement": "DiR fluorescence signal in the blood or tissues", "result": "Almost no fluorescence signal"}]}
